# Data as given in ChEMBL document CHEMBL1795325, “Studying synergism of methyl linked cyclohexyl thiophenes with triazole: synthesis and their cdk5/p25 inhibition activity” (Eur J Med Chem, 2011).
# Target: Cyclin-dependent kinase 5/CDK5 activator 1 (Homo sapiens, UniProt Q00535)
# Assay type: protein-complex assay
# Conditions: not given
# Sequence of Cyclin-dependent kinase 5/CDK5 activator 1 (Q00535 whole entry): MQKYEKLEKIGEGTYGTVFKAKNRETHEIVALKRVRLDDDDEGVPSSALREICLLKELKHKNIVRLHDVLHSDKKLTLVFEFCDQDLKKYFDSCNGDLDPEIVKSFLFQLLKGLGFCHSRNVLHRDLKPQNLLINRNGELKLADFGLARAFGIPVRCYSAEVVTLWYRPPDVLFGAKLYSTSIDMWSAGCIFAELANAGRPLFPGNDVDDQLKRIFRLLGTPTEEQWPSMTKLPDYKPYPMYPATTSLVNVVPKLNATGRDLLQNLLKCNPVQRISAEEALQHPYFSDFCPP
# Sequence of Cyclin-dependent kinase 5/CDK5 activator 1 (Q15078 whole entry, further chain): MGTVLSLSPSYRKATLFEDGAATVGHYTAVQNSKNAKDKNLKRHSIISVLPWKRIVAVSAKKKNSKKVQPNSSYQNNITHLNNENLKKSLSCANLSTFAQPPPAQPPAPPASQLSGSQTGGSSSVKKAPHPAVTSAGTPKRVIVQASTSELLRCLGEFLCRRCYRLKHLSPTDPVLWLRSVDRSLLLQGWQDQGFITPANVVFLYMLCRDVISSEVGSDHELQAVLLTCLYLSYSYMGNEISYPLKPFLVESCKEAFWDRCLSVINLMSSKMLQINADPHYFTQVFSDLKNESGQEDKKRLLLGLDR
row,SMILES,IC50 [nM]
1,O=C(CCl)Nc1sc2c(c1Cc1n[nH]c(=S)n1NC(=O)c1ccc(Cl)cc1)CCCC2,343
2,O=C(CSc1nnc(Cc2c(NC(=O)CCl)sc3c2CCCC3)n1NC(=O)c1ccc(Cl)cc1)NNC(=O)c1ccccc1,617
3,Nn1c(S)nnc1Cc1c(NCCC(=O)O)sc2c1CCCC2,268
4,O=C(Cc1c(NC(=O)CCl)sc2c1CCCC2)NNC(=S)[S-].[K+],247
5,CC(=O)NNC(=O)CSc1nnc(Cc2c(NC(=O)CCl)sc3c2CCCC3)n1NC(=O)c1ccc(Cl)cc1,468
6,CC(=O)NNC(=O)CSc1nnc(Cc2c(NC(=O)CCl)sc3c2CCCC3)n1NC(=O)c1ccccc1,350
7,Nn1c(S)nnc1CSc1nnc(Cc2c(NC(=O)CCl)sc3c2CCCC3)n1NC(=O)c1ccc(Cl)cc1,2860
8,CC(=O)Nc1sc2c(c1Cc1nnc(S)n1N)CCCC2,386
9,O=C(CCl)Nc1sc2c(c1Cc1nnc(SCSc3nnc(Cc4c(NC(=O)CCl)sc5c4CCCC5)n3NC(=O)c3ccccc3)n1NC(=O)c1ccccc1)CCCC2,669
10,CC(=O)Nn1c(Cc2c(NC(=O)CCl)sc3c2CCCC3)nnc1SCSc1nnc(Cc2c(NC(=O)CCl)sc3c2CCCC3)n1NC(C)=O,849
11,O=C(Cc1c(NC(=O)c2ccccc2)sc2c1CCCC2)NNC(=S)[S-].[K+],373
12,CC(=O)Nc1sc2c(c1CC(=O)NNC(=S)[S-])CCCC2.[K+],346
13,COC(=O)CSc1nnc(Cc2c(NC(=O)CCl)sc3c2CCCC3)n1NC(=O)c1ccccc1,681
14,COC(=O)CSc1nnc(Cc2c(NC(=O)CCl)sc3c2CCCC3)n1NC(=O)c1ccc(Cl)cc1,443
15,CC(=O)Nn1c(Cc2c(NC(=O)CCl)sc3c2CCCC3)nnc1SCc1n[nH]c(=S)n1N,4030
16,O=C(CCl)Nc1sc2c(c1Cc1n[nH]c(=S)n1NC(=O)c1ccccc1)CCCC2,751
17,O=C(O)CCNc1sc2c(c1CC(=O)NNC(=S)[S-])CCCC2.[K+],397
18,O=C(CCl)NNC(=O)CSc1nnc(Cc2c(NC(=O)CCl)sc3c2CCCC3)n1NC(=O)c1ccc(Cl)cc1,229
19,N#CCSc1nnc(Cc2c(NC(=O)CCl)sc3c2CCCC3)n1NC(=O)c1ccccc1,657
20,Nn1c(S)nnc1Cc1c(NC(=O)c2ccccc2)sc2c1CCCC2,621
21,CC(=O)NNC(=O)CSc1nnc(Cc2c(NC(=O)CCl)sc3c2CCCC3)n1NC(C)=O,454
22,CC(=O)Nn1c(Cc2c(NC(=O)CCl)sc3c2CCCC3)nnc1SCC(=O)N/N=C/c1ccccc1,336
23,O=C(CCl)NNC(=O)CSc1nnc(Cc2c(NC(=O)CCl)sc3c2CCCC3)n1NC(=O)c1ccccc1,532
24,CC(=O)Nn1c(Cc2c(NCCC(=O)O)sc3c2CCCC3)nnc1SCSc1nnc(Cc2c(NCCC(=O)O)sc3c2CCCC3)n1NC(C)=O,734
25,Nn1c(CSc2nnc(Cc3c(NC(=O)c4ccccc4)sc4c3CCCC4)n2NC(=O)c2ccccc2)n[nH]c1=S,4590
26,O=C(CSc1nnc(Cc2c(NC(=O)c3ccccc3)sc3c2CCCC3)n1NC(=O)c1ccccc1)NNC(=O)c1ccccc1,466
27,Nn1c(CSc2nnc(Cc3c(NCCC(=O)O)sc4c3CCCC4)n2NC(=O)c2ccccc2)n[nH]c1=S,4990
28,CC(=O)Nc1sc2c(c1Cc1nnc(SCC#N)n1NC(C)=O)CCCC2,458

# System: Vero
# Test: Cytotoxicity against african green monkey Vero C1008 cells at 6.25 to 50 ug/ml by neutral red uptake assay
# Assay type: cell-based
# Conditions: chlorocebus sabaeus
row,SMILES,Activity
1,O=C(CCl)Nc1sc2c(c1Cc1n[nH]c(=S)n1NC(=O)c1ccc(Cl)cc1)CCCC2,Non-toxic
2,O=C(CSc1nnc(Cc2c(NC(=O)CCl)sc3c2CCCC3)n1NC(=O)c1ccc(Cl)cc1)NNC(=O)c1ccccc1,Non-toxic
3,Nn1c(S)nnc1Cc1c(NCCC(=O)O)sc2c1CCCC2,Non-toxic
4,O=C(Cc1c(NC(=O)CCl)sc2c1CCCC2)NNC(=S)[S-].[K+],Non-toxic
5,CC(=O)NNC(=O)CSc1nnc(Cc2c(NC(=O)CCl)sc3c2CCCC3)n1NC(=O)c1ccc(Cl)cc1,Non-toxic
6,CC(=O)NNC(=O)CSc1nnc(Cc2c(NC(=O)CCl)sc3c2CCCC3)n1NC(=O)c1ccccc1,Non-toxic
7,Nn1c(S)nnc1CSc1nnc(Cc2c(NC(=O)CCl)sc3c2CCCC3)n1NC(=O)c1ccc(Cl)cc1,Non-toxic
8,CC(=O)Nc1sc2c(c1Cc1nnc(S)n1N)CCCC2,Non-toxic
9,O=C(CCl)Nc1sc2c(c1Cc1nnc(SCSc3nnc(Cc4c(NC(=O)CCl)sc5c4CCCC5)n3NC(=O)c3ccccc3)n1NC(=O)c1ccccc1)CCCC2,Non-toxic
10,CC(=O)Nn1c(Cc2c(NC(=O)CCl)sc3c2CCCC3)nnc1SCSc1nnc(Cc2c(NC(=O)CCl)sc3c2CCCC3)n1NC(C)=O,Non-toxic
11,O=C(Cc1c(NC(=O)c2ccccc2)sc2c1CCCC2)NNC(=S)[S-].[K+],Non-toxic
12,CC(=O)Nc1sc2c(c1CC(=O)NNC(=S)[S-])CCCC2.[K+],Non-toxic
13,COC(=O)CSc1nnc(Cc2c(NC(=O)CCl)sc3c2CCCC3)n1NC(=O)c1ccccc1,Non-toxic
14,COC(=O)CSc1nnc(Cc2c(NC(=O)CCl)sc3c2CCCC3)n1NC(=O)c1ccc(Cl)cc1,Non-toxic
15,CC(=O)Nn1c(Cc2c(NC(=O)CCl)sc3c2CCCC3)nnc1SCc1n[nH]c(=S)n1N,Non-toxic
16,O=C(CCl)Nc1sc2c(c1Cc1n[nH]c(=S)n1NC(=O)c1ccccc1)CCCC2,Non-toxic
17,O=C(O)CCNc1sc2c(c1CC(=O)NNC(=S)[S-])CCCC2.[K+],Non-toxic
18,O=C(CCl)NNC(=O)CSc1nnc(Cc2c(NC(=O)CCl)sc3c2CCCC3)n1NC(=O)c1ccc(Cl)cc1,Non-toxic
19,N#CCSc1nnc(Cc2c(NC(=O)CCl)sc3c2CCCC3)n1NC(=O)c1ccccc1,Non-toxic
20,Nn1c(S)nnc1Cc1c(NC(=O)c2ccccc2)sc2c1CCCC2,Non-toxic
21,CC(=O)NNC(=O)CSc1nnc(Cc2c(NC(=O)CCl)sc3c2CCCC3)n1NC(C)=O,Non-toxic
22,CC(=O)Nn1c(Cc2c(NC(=O)CCl)sc3c2CCCC3)nnc1SCC(=O)N/N=C/c1ccccc1,Non-toxic
23,O=C(CCl)NNC(=O)CSc1nnc(Cc2c(NC(=O)CCl)sc3c2CCCC3)n1NC(=O)c1ccccc1,Non-toxic
